Data on 16 compounds can be found in patent US20220220373A1, “FLUORESCENT PROBES FOR MONOACYLGLYCEROL LIPASE (MAGL)” (Hoffmann-La Roche Inc., priority 2019, published 2022).

The target of the experiment is T1, MAGL (Homo sapiens, UniProt Q99685).
T1 sequence (Q99685 1-303): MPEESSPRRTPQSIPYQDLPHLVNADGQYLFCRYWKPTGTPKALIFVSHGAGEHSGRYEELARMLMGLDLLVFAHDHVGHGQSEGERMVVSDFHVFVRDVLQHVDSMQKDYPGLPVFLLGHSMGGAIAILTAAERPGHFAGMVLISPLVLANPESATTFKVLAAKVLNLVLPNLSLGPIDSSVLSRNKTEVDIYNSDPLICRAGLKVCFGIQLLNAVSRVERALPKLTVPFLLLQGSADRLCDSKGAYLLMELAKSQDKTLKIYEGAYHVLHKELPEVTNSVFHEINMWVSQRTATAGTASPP
Description: 2-AG assay (MAGL inhibitory activity, hydrolysis of 2-arachidonoylglycerol followed by mass spectrometry). Conditions: 50 pM MAGL, 8 μM 2-arachidonoylglycerol, 15 min pre-incubation, 30 min incubation at RT. The format is biochemical. As to the method: Compounds were profiled for MAGL inhibitory activity by determining the enzymatic activity by following the hydrolysis of the natural substrate 2-arachidonoylglycerol (2-AG) resulting in arachidonic acid, which can be followed by mass spectrometry. This assay is hereinafter abbreviated “2-AG assay”.
The 2-AG assay was carried out in 384 well assay plates (PP, Greiner Cat#784201) in a total volume of 20 μL. Compound dilutions were made in 100% DMSO (VWR Chemicals 23500.297) in a polypropylene plate in 3-fold dilution steps to give a final concentration range in the assay from 12.5 μM to 0.8 pM. […] compound dilutions (100% DMSO) were added to 9 μL MAGL in assay buffer (50 mM TRIS (GIBCO, 15567-027), 1 mM EDTA (Fluka, 03690-100 mL), 0.01% (v/v) Tween. After shaking, the plate was incubated for 15 min at RT. To start the reaction, 10 μL 2-arachidonoylglycerol in assay buffer was added. The final concentrations in the assay was 50 pM MAGL and 8 μM 2-arachidonoylglyerol. After shaking and 30 min incubation at RT, the reaction was quenched by the addition of […] of ACN containing 4 μM of d8-arachidonic acid. The amount of arachidonic acid was traced by an online SPE system (Agilent Rapidfire) coupled to a triple quadrupole mass spectrometer (Agilent 6460). A C18 SPE cartridge (G9205A) was used in an ACN/water liquid setup. The mass spectrometer was operated in negative electrospray mode following the mass transitions 303.1→259.1 for arachidonic acid and 311.1→267.0 for d8-arachidonic acid. The activity of the compounds was calculated based on the ratio of intensities [arachidonic acid/d8-arachidonic acid].

Regarding `CC(C)(C)OC(=O)NCCOc1cccc(C(c2ccccc2)C2CCN(C(=O)N3CC[C@@H]4OCC(=O)N[C@@H]4C3)CC2)c1` (single isomer, unassigned) [Example 4, tert-Butyl N-[2-[3-[(R or S)-[1-[(4aR,8aS)-3-oxo-4,4a,5,7,8,8a-hexahydropyrido[4,3-b][1,4]oxazine-6-carbonyl]-4-piperidyl]-phenyl-methyl]phenoxy]ethyl]carbamate], the IC50 (as a rule, the point on the concentration scale where inhibition reaches its midpoint) came to 0.3 nM.
Take `CC(C)(C)OC(=O)NCCOc1cccc(C(c2ccccc2)C2CCN(C(=O)N3CC[C@@H]4OCC(=O)N[C@@H]4C3)CC2)c1` (single isomer, unassigned) [Example 5, tert-Butyl N-[2-[3-[(S or R)-[1-[(4aR,8aS)-3-oxo-4,4a,5,7,8,8a-hexahydropyrido[4,3-b][1,4]oxazine-6-carbonyl]-4-piperidyl]-phenyl-methyl]phenoxy]ethyl]carbamate]: half-maximal inhibition (IC50) required 0.2 nM.
For the compound `NCCOc1cccc(C(c2ccccc2)C2CCN(C(=O)N3CC[C@@H]4OCC(=O)N[C@@H]4C3)CC2)c1` (single isomer, unassigned) [Example 6, (4aR,8aS)-6-[4-[(S or R)-[3-(2-Aminoethoxy)phenyl]-phenyl-methyl]piperidine-1-carbonyl]-4,4a,5,7,8,8a-hexahydropyrido[4,3-b][1,4]oxazin-3-one], the IC50 came to 5.3 nM.
With `NCCOc1cccc(C(c2ccccc2)C2CCN(C(=O)N3CC[C@@H]4OCC(=O)N[C@@H]4C3)CC2)c1` (single isomer, unassigned) [Example 7, (4aR,8aS)-6-[4-[(R or S)-[3-(2-Aminoethoxy)phenyl]-phenyl-methyl]piperidine-1-carbonyl]-4,4a,5,7,8,8a-hexahydropyrido[4,3-b][1,4]oxazin-3-one] the figure was 48.5 nM.
On to `CC(C)(C)OC(=O)NCCOCCOCCC(=O)NCCOc1cccc([C@H](c2ccccc2)C2CCN(C(=O)N3CC[C@@H]4OCC(=O)N[C@@H]4C3)CC2)c1` (single isomer, unassigned) [Example 8, tert-Butyl N-[2-[2-[3-[2-[3-[(S or R)-11-1(4aR,8aS)-3-oxo-4,4a,5,7,8,8a-hexahydropyrido[4,3-b][1,4]oxazine-6-carbonyl]-4-piperidyl]-phenyl-methyl]phenoxy]ethylamino]-3-oxo-propoxy]ethoxy]ethyl]carbamate], for which it took 1.5 nM to reach half-maximal inhibition (IC50).
`CC(C)(C)OC(=O)NCCOCCOCCC(=O)NCCOc1cccc(C(c2ccccc2)C2CCN(C(=O)N3CC[C@@H]4OCC(=O)N[C@@H]4C3)CC2)c1` (single isomer, unassigned) [Example 9, tert-Butyl N-[2-[2-[3-[2-[3-[(R or S)-[1-[(4aR,8aS)-3-oxo-4,4a,5,7,8,8a-hexahydropyrido[4,3-b][1,4]oxazine-6-carbonyl]-4-piperidyl]-phenyl-methyl]phenoxy]ethylamino]-3-oxo-propoxy]ethoxy]ethyl]carbamate] came in with an IC50 of 2.6 nM.
With `NCCOCCOCCC(=O)NCCOc1cccc(C(c2ccccc2)C2CCN(C(=O)N3CC[C@@H]4OCC(=O)N[C@@H]4C3)CC2)c1` (single isomer, unassigned) [Example 10, N-[2-[3-[(R or S)-[1-[(4aR,8aS)-3-Oxo-4,4a,5,7,8,8a-hexahydropyrido[4,3-b][1,4]oxazine-6-carbonyl]-4-piperidyl]-phenyl-methyl]phenoxy]ethyl]-3-[2-(2-aminoethoxy)ethoxy]propanamide], the IC50 came to 7.8 nM.
With `NCCOCCOCCC(=O)NCCOc1cccc(C(c2ccccc2)C2CCN(C(=O)N3CC[C@@H]4OCC(=O)N[C@@H]4C3)CC2)c1` (single isomer, unassigned) [Example 11, N-[2-[3-[(S or R)-[1-[(4aR,8aS)-3-Oxo-4,4a,5,7,8,8a-hexahydropyrido[4,3-b][1,4]oxazine-6-carbonyl]-4-piperidyl]-phenyl-methyl]phenoxy]ethyl]-3-[2-(2-aminoethoxy)ethoxy]propanamide] the figure was 2930 nM; with `O=C(CCOCCOCCNc1ccc([N+](=O)[O-])c2nonc12)NCCOc1cccc(C(c2ccccc2)C2CCN(C(=O)N3CC[C@@H]4OCC(=O)N[C@@H]4C3)CC2)c1` (single isomer, unassigned) [Example 12, N-[2-[3-[(S or R)-[1-[(4aR,8aS)-3-Oxo-4,4a,5,7,8,8a-hexahydropyrido[4,3-b][1,4]oxazine-6-carbonyl]-4-piperidyl]-phenyl-methyl]phenoxy]ethyl]-3-[2-[2-[(4-nitro-2,1,3-benzoxadiazol-7-yl)amino]ethoxy]ethoxy]propanamide], 0.5 nM; with `O=C(CCOCCOCCNc1ccc([N+](=O)[O-])c2nonc12)NCCOc1cccc(C(c2ccccc2)C2CCN(C(=O)N3CC[C@@H]4OCC(=O)N[C@@H]4C3)CC2)c1` (single isomer, unassigned) [Example 13, N-[2-[3-[(R or S)-[1-[(4aR,8aS)-3-Oxo-4,4a,5,7,8,8a-hexahydropyrido[4,3-b][1,4]oxazine-6-carbonyl]-4-piperidyl]phenyl-methyl]phenoxy]ethyl]-3-[2-[2-[(4-nitro-2,1,3-benzoxadiazol-7-yl)amino]ethoxy]ethoxy]propanamide], 1.6 nM.
With `CC(C)(C)OC(=O)NCCOCCC(=O)NCCOc1cccc(C(c2ccccc2)C2CCN(C(=O)N3CC[C@@H]4OCC(=O)N[C@@H]4C3)CC2)c1` (single isomer, unassigned) [Example 14, tert-Butyl N-[2-[3-[2-[3-[(S or R)-[1-[(4aR,8aS)-3-oxo-4,4a,5,7,8,8a-hexahydropyrido[4,3-b][1,4]oxazine-6-carbonyl]-4-piperidyl]-phenyl-methyl]phenoxy]ethylamino]-3-oxo-propoxy]ethyl]carbamate] the figure was 1.3 nM.
Turning to `CC(C)(C)OC(=O)NCCOCCC(=O)NCCOc1cccc([C@@H](c2ccccc2)C2CCN(C(=O)N3CC[C@@H]4OCC(=O)N[C@@H]4C3)CC2)c1` (single isomer, unassigned) [Example 15, tert-Butyl N-[2-[3-[2-[3-[(R or S)-[1-1(4aR,8aS)-3-oxo-4,4a,5,7,8,8a-hexahydropyrido[4,3-b][1,4]oxazine-6-carbonyl]-4-piperidyl]-phenyl-methyl]phenoxy]ethylamino]-3-oxo-propoxy]ethyl]carbamate], it took 3.2 nM to reach half-maximal inhibition (IC50).
For the compound `NCCOCCC(=O)NCCOc1cccc([C@@H](c2ccccc2)C2CCN(C(=O)N3CC[C@@H]4OCC(=O)N[C@@H]4C3)CC2)c1` (single isomer, unassigned) [Example 16, N-[2-[3-[(R or S)-[1-1(4aR,8aS)-3-Oxo-4,4a,5,7,8,8a-hexahydropyrido[4,3-b][1,4]oxazine-6-carbonyl]-4-piperidyl]phenyl-methyl]phenoxy]ethyl]-3-(2-aminoethoxy)propanamide], the midpoint of inhibition, the IC50, lay at 18.1 nM.
As for `O=C(CCOCCNc1ccc([N+](=O)[O-])c2nonc12)NCCOc1cccc(C(c2ccccc2)C2CCN(C(=O)N3CCC4OCC(=O)NC4C3)CC2)c1` (single isomer, unassigned) [Example 17, N-[2-[3-[(S or R)-11-1(4aR,8aS)-3-Oxo-4,4a,5,7,8,8a-hexahydropyrido[4,3-b][1,4]oxazine-6-carbonyl]-4-piperidyl]-phenyl-methyl]phenoxy]ethyl]-3-[2-[(4-nitro-2,1,3-benzoxadiazol-7-yl)amino]ethoxy]propanamide], 0.7 nM corresponded to half-maximal inhibition (IC50).
With `O=C(CCOCCNc1ccc([N+](=O)[O-])c2nonc12)NCCOc1cccc(C(c2ccccc2)C2CCN(C(=O)N3CCC4OCC(=O)NC4C3)CC2)c1` (single isomer, unassigned) [Example 18, N-[2-[3-[(R or S)-[1-1(4aR,8aS)-3-Oxo-4,4a,5,7,8,8a-hexahydropyrido[4,3-b][1,4]oxazine-6-carbonyl]-4-piperidyl]-phenyl-methyl]phenoxy]ethyl]-3-12-[(4-nitro-2,1,3-benzoxadiazol-7-yl)amino]ethoxy]propanamide] the figure was 7.2 nM; with `CC(C)(C)OC(=O)NCCOCCOCCOCCC(=O)NCCOc1cccc(C(c2ccccc2)C2CCN(C(=O)N3CC[C@@H]4OCC(=O)N[C@@H]4C3)CC2)c1` (single isomer, unassigned) [Example 19, tert-Butyl N-[2-[2-[2-[3-[2-[3-[(S or R)-[1-[(4aR,8aS)-3-oxo-4,4a,5,7,8,8a-hexahydropyrido[4,3-b][1,4]oxazine-6-carbonyl]-4-piperidyl]-phenyl-methyl]phenoxy]ethylamino]-3-oxo-propoxy]ethoxy]ethoxy]ethyl]carbamate], 2 nM.
